This note sets out measurements from article PMC11002876, “KcsA-Kv1.x chimeras with complete ligand-binding sites provide improved predictivity for screening selective Kv1.x blockers” (The Journal of Biological Chemistry, 2024).

Where a SMILES comes first, the peptide text is derived from it.

This test addresses T1, KcsA-Kv1.2 T-only chimera (Streptomyces lividans, UniProt P0A334, R52A/G53D/A54E/P55R/G56E/A57S/L59F/I60P/T61S/Y62I/R64D).
T1 sequence (P0A334 1-160 R52A/G53D/A54E/P55R/G56E/A57S/L59F/I60P/T61S/Y62I/R64D): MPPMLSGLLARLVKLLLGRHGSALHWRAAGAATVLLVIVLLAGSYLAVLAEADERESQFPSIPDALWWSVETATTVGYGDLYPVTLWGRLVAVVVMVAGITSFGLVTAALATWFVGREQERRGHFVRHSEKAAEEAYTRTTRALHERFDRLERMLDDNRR
In words: Phage ELISA-binding assay, KcsA-Kv1.2 T-only. The arrangement: species or system human Kv1.2 turret in Streptomyces lividans KcsA. The conditions noted are these: toxin displayed on M13 phage, Fig. 7C. As to the method:
Phage display test solutions were prepared according to routine phage display protocols ([62]). Phosphorylated and annealed oligonucleotides encoding the peptide construct were ligated into linearized pAS62 phagemid vector (https://patents.google.com/patent/WO2022144560A1/en) at a vector/insert ratio of 1:3. The final phagemid construct harbored a signal sequence followed by the peptide of interest, a linker sequence ([…]), and the C-terminal part of the P3 coat protein (amino acids: 216-424 of NP_510891.1). Chemically competent XL1-Blue E. coli cells (2022249, Agilent) were transformed with the ligation product and then streaked onto ampicillin (100 μg/ml) containing LB/Amp plates and incubated for 16 h at 37 °C. A few clones were sequenced, and a single colony with confirmed target sequence was inoculated into 3 ml 2 YT medium supplemented with 100 μg/ml ampicillin and incubated at 37 °C until the culture reached midlog phase. The culture was infected with M13KO7 helper phage (N0315S, New England Biolabs) (phage/cell ratio 10:1) and was incubated for 30 min at 37 °C. The 3 ml culture was transferred into 200 ml 2YT medium, supplemented with 100 μg/ml ampicillin and 25 μg/ml kanamycin, and incubated overnight at 37 °C. The overnight cell culture (200 ml) was pelleted by centrifugation at 8000g for 10 min in 400 ml centrifuge tubes at 4 °C. […] The particle concentrations of phage solutions were determined using a NanoDrop One C (Thermo Fisher Scientific) spectrophotometer. The phage particle concentration was assessed according to the formula: (A268–A320) × 5 × 10^12 particles/ml ([62]). […]
Phage stock solutions were diluted to working concentration with phage resuspension buffer supplemented with 2 mM DDM. […] Following blocking, the wells were washed 4× with washing buffer (300 μl TBS-Tween, 0.1% v/v) using a Wellwash Versa microplate washer (Thermo Fisher Scientific); then 50 μl phage solution (in TBS-BSA-Tween, 0.1% v/v, 2 mM DDM) at determined phage concentration was added to the wells and incubated for 1 h at room temperature on a horizontal shaker. […]
In the case of `CC[C@H](C)[C@H](NC(=O)[C@H](CCC(=O)O)NC(=O)[C@@H](NC(=O)CN)C(C)C)C(=O)N[C@@H](CC(N)=O)C(=O)N[C@H](C(=O)N[C@@H](CCCCN)C(=O)N[C@H]1CSSC[C@@H]2NC(=O)[C@H](CCCCN)NC(=O)CNC(=O)[C@H](Cc3ccccc3)NC(=O)[C@H](CCCNC(=N)N)NC(=O)[C@H](CCSC)NC(=O)CNC(=O)[C@H](C)NC(=O)[C@H](CC(=O)O)NC(=O)[C@H](CCCCN)NC(=O)[C@@H]3CSSC[C@@H](C(=O)N[C@H](C(=O)N4CCC[C@H]4C(=O)N[C@@H](CCCCN)C(=O)O)[C@@H](C)O)NC(=O)[C@H](Cc4c[nH]cn4)NC(=O)[C@H](CSSC[C@H](NC(=O)[C@H](CCC(N)=O)NC(=O)[C@@H]4CCCN4C(=O)[C@H](CO)NC(=O)CNC(=O)[C@H](CO)NC1=O)C(=O)N[C@@H](CC(C)C)C(=O)N[C@@H](CCCCN)C(=O)N1CCC[C@H]1C(=O)N3)NC(=O)[C@H](CCCCN)NC(=O)[C@H](CCCNC(=N)N)NC(=O)[C@H](CC(N)=O)NC(=O)[C@H](CCSC)NC2=O)C(C)C` [KTX1, Kaliotoxin-1], the “phage binding to KcsA-Kv1.2 T-only, in words” value is given as “inconsistent with their published channel blocking potencies”.
`CC[C@H](C)[C@@H]1NC(=O)[C@@H]2CSSC[C@H](NC(=O)[C@H](CO)NC(=O)[C@@H](N)C(C)C)C(=O)N[C@@H]([C@@H](C)O)C(=O)NCC(=O)N[C@@H](CO)C(=O)N[C@@H](CCCCN)C(=O)N[C@@H](CC(=O)O)C(=O)N[C@@H](CSSC[C@@H](C(=O)N[C@@H](CCCCN)C(=O)N[C@H]3CSSC[C@@H](C(N)=O)NC(=O)CNC(=O)[C@H](Cc4ccc(O)cc4)NC3=O)NC(=O)[C@H](CO)NC(=O)[C@H](CCCCN)NC(=O)[C@H](CC(N)=O)NC1=O)C(=O)N[C@@H](Cc1ccc(O)cc1)C(=O)N[C@@H](C)C(=O)N1CCC[C@H]1C(=O)N[C@H]1CSSC[C@H](NC(=O)CNC(=O)[C@H]([C@@H](C)O)NC(=O)[C@H](CCC(N)=O)NC(=O)[C@H](CCCCN)NC(=O)[C@H](CCCNC(=N)N)NC1=O)C(=O)N1CCC[C@H]1C(=O)N[C@@H](CC(N)=O)C(=O)N[C@@H](C)C(=O)N[C@@H](CCCCN)C(=O)N2` [MTX, Maurotoxin] (HELM PEPTIDE1{V.S.C.T.G.S.K.D.C.Y.A.P.C.R.K.Q.T.G.C.P.N.A.K.C.I.N.K.S.C.K.C.Y.G.C.[am]}$PEPTIDE1,PEPTIDE1,3:R3-24:R3|PEPTIDE1,PEPTIDE1,9:R3-29:R3|PEPTIDE1,PEPTIDE1,13:R3-19:R3|PEPTIDE1,PEPTIDE1,31:R3-34:R3$$$V2.0; N-terminus and C-terminus assumed): the “phage binding to KcsA-Kv1.2 T-only, in words” value is listed as “negligible binding”.
Next, `CC[C@H](C)[C@@H]1NC(=O)[C@@H](NC(=O)[C@H](CO)NC(=O)[C@@H](N)CCCNC(=N)N)CSSC[C@@H](C(=O)O)NC(=O)[C@H]([C@@H](C)O)NC(=O)CNC(=O)[C@@H]2CSSC[C@@H]3NC(=O)[C@H](CCC(N)=O)NC(=O)[C@H](Cc4ccccc4)NC(=O)[C@H](C)NC(=O)[C@H]([C@@H](C)O)NC(=O)[C@H](CSSC[C@H](NC(=O)[C@H](Cc4ccccc4)NC(=O)[C@H](CO)NC(=O)[C@H](CC(C)C)NC(=O)[C@H](CCCNC(=N)N)NC(=O)[C@H](Cc4ccc(O)cc4)NC(=O)[C@H](CCCCN)NC(=O)[C@H](CCSC)NC(=O)[C@H](CO)NC(=O)[C@H](Cc4c[nH]cn4)NC(=O)[C@H](CCCCN)NC3=O)C(=O)N[C@@H](CCCNC(=N)N)C(=O)N[C@@H](CCCCN)C(=O)N[C@@H]([C@@H](C)O)C(=O)N2)NC(=O)[C@H](CCCNC(=N)N)NC(=O)[C@H](CO)NC(=O)[C@H](CCCCN)NC(=O)[C@@H]2CCCN2C(=O)[C@H]([C@@H](C)CC)NC(=O)[C@H]([C@@H](C)O)NC(=O)[C@H](CC(=O)O)NC1=O` [ShK, Stichodactyla toxin]: “inconsistent with their published channel blocking potencies”.
